Data on seven compounds can be found in patent US20230146870A1, “METHOD TO QUANTIFY AFFINITY AND SELECTIVITY OF SMALL MOLECULES FOR PROTEINS IN LIVING CELLS” (Ohio State Innovation Foundation, priority 2021, published 2023).

Assay [1] concerns the target T1, mouse PKCβI-mVenus (Mus musculus, UniProt P68404).
T1 construct: eight plasmids encoding full length mouse PKC isozymes fused to; expressed in transfected cells; host or cells: HEK293
Description: Fluorescent cellular competition assay with probe 47, PKCβI-mVenus. It is filed as binding. An excerpt: (§1) Labeled compounds (tracers) can be used to measure dissociation constants (Kd) and evaluate how tightly different compounds bind to a target protein. However, labeled ligands are not always readily accessible and labels such as fluorophores on small molecules can affect affinities compared to unlabeled compounds. As an alternative, competitive binding assays are widely used to quantify the affinity of small molecules for target proteins. This approach can measure binding by varying the concentration of an unlabeled ligand in the presence of a fixed concentration of a tracer of interest (FIG. 24). The feasibility of this approach for quantification of cellular Ki values using probe 47 was validated with PMA as shown in Table 1.
(§2) HEK293 cells were transfected with different plasmids encoding fluorescent PKC isoforms.

Assay [2] concerns the target mouse PKCα-mVenus (Mus musculus, UniProt P20444). Description: Fluorescent cellular competition assay with probe 47, PKCα-mVenus. Also on record: eight plasmids encoding full length mouse PKC isozymes fused to; expressed in transfected cells; host or cells: HEK293. It is filed as binding.
Text: as §1, §2

The target in assay [3] is mouse PKCγ-mVenus (Mus musculus, UniProt P63318). Description: Fluorescent cellular competition assay with probe 47, PKCγ-mVenus. It is filed as binding. Also on record: eight plasmids encoding full length mouse PKC isozymes fused to; expressed in transfected cells; host or cells: HEK293.
Text: as §1, §2

The target in assay [4] is mouse PKCδ-mVenus (Mus musculus, UniProt P28867). Briefly: Fluorescent cellular competition assay with probe 47, PKCδ-mVenus. It is filed as binding. Also on record: eight plasmids encoding full length mouse PKC isozymes fused to; expressed in transfected cells; host or cells: HEK293.
Sequence of mouse PKCδ-mVenus (P28867 whole entry, the tested form may be a part): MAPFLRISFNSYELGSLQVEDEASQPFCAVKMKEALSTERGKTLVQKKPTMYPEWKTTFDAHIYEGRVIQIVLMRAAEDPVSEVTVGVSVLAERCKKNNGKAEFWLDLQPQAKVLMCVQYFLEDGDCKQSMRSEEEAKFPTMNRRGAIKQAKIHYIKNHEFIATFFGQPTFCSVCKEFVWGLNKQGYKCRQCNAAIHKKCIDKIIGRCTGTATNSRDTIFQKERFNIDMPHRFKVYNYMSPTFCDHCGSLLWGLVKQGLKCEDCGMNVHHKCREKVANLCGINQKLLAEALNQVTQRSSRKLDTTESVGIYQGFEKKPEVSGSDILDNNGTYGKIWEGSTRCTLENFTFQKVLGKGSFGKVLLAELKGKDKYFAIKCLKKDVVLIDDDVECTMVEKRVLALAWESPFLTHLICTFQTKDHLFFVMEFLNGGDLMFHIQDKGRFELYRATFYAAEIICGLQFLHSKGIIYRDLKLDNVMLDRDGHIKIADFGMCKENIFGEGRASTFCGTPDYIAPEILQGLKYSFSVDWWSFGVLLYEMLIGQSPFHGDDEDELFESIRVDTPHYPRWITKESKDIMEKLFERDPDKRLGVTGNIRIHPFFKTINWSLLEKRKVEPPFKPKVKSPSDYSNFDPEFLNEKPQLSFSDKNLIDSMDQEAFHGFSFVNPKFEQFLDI
Text: as §1, §2

Assay [5] concerns the target T2, mouse PKCε-mVenus (Mus musculus, UniProt P16054).
T2 sequence (P16054 1-737): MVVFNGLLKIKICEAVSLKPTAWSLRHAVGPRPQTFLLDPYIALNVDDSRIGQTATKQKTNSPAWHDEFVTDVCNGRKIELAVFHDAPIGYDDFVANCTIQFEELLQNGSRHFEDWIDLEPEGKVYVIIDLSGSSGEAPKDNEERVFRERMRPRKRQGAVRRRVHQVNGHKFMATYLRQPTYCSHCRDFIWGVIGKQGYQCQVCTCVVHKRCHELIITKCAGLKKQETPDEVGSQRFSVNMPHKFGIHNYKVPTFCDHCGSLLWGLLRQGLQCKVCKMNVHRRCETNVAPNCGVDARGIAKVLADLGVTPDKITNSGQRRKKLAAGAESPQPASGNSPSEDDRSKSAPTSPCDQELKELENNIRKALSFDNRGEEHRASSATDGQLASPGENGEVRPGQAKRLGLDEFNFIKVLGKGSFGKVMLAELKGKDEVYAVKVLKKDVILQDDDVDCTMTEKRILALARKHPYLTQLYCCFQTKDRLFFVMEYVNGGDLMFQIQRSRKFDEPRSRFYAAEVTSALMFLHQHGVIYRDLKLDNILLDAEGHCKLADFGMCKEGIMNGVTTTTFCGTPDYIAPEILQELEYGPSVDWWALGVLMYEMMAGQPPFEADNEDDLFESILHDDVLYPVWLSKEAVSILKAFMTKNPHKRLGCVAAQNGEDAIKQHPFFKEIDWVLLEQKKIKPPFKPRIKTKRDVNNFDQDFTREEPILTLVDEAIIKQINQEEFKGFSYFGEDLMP
Briefly: Fluorescent cellular competition assay with probe 47, PKCε-mVenus. The class given is binding. The arrangement: eight plasmids encoding full length mouse PKC isozymes fused to; expressed in transfected cells; host or cells: HEK293.
Text: as §1, §2

Assay [6] concerns the target mouse PKCη-mVenus (Mus musculus, UniProt P23298). Briefly: Fluorescent cellular competition assay with probe 47, PKCη-mVenus. The class given is binding. Also on record: eight plasmids encoding full length mouse PKC isozymes fused to; expressed in transfected cells; host or cells: HEK293.
Text: as §1, §2

Assay [7] has as its target mouse PKCθ-mVenus (Mus musculus, UniProt Q02111). Description: Fluorescent cellular competition assay with probe 47, PKCθ-mVenus. Also on record: eight plasmids encoding full length mouse PKC isozymes fused to; expressed in transfected cells; host or cells: HEK293 (transient). The class given is binding.
Text: as §1, §2

For assay [8], the system named is microtubules in living HeLa cells. Briefly: Allosteric modulator assay with PB-GABA-Taxol in living HeLa cells (cellular Kb, α). The note with it: PB-GABA-Taxol 1.5 μM, verapamil 100 μM, 3 h, 37° C.; for Kb: read-out: cellular Kb (allosteric modulator).
Description: In this model, two compounds that engage tubulin at different binding sites influence the binding of each other through cooperativity. […] Smaller cooperativity factors (α) represent stronger effects on binding of the orthosteric probe. For these allosteric modulators, the apparent cellular affinity was defined as Kb, and the mathematical relationship between Kb and α is provided (equation 3).
The experimental method for allosteric binding assays was identical to the competition binding assays described previously. However, because it is inaccurate to describe an allosteric modulator with a competitive inhibitory constant (Ki), we used an allosteric modulator model (Kb) for data analysis. […] The observed occupancy of the orthosteric ligand is defined as KApp and is determined by the equilibrium dissociation constant of the orthosteric ligand (Kd), the concentration of allosteric ligand, its affinity for the receptor (Kb), and the strength by which the allosteric ligand affects receptor binding to the orthosteric ligand as defined by the cooperativity factor (a).
Assay [9] deals with crosslinked / purified microtubules. The note with it: previously reported, cited from earlier work; for Ki: read-out: biochemical Ki for microtubules.
In assay [10] the test system is microtubules (taxane binding site) in living HeLa cells. Briefly: Competition binding assay with PB-GABA-Taxol in living HeLa cells (cellular Ki). The note with it: read-out: cellular Ki; PB-GABA-Taxol 1.5 μM, verapamil 100 μM, 37° C., 4% FBS, 3 h.
Description: In this assay the cellular Kd was measured by varying the concentration of the fluorescent probe added to cells at equilibrium as established by kinetic assays of probe uptake. Total binding of this probe to specific and non-specific sites in cells in the presence of the efflux inhibitor verapamil was determined by flow cytometry. Non-specific binding was quantified separately by addition of excess paclitaxel with the probe under the same conditions. Subtraction of the linear non-specific binding contribution from the total binding curve was used analyze specific binding of the probe to tubulin of microtubules. Measurement of this cellular dissociation constant under equilibrium conditions further allowed conversion of the half-maximal inhibitory concentration (IC50) of unlabeled compounds into cellular inhibitory constants using an adaptation of the Cheng-Prusoff equation^44 for competitive modulators (Ki) or the allosteric equation^45 for non-competitive modulators (Kb and the cooperativity factor α) as implemented by GraphPad Prism.
Assay [11] addresses T1, mouse PKCβI-mVenus. Briefly: Apparent cellular Kd by flow cytometry, HEK293 cells overexpressing PKCβI-mVenus (Example 2). It is filed as binding. On the procedure: The apparent Kd values of these fluorescent probes were measured using different PKC isozymes (e.g., PKCβI, FIGS. 20A-20D). HEK293 cells were transfected to overexpress PKCβ-mVenus and treated with probes in the presence of verapamil (100 μM) as an inhibitor of efflux.
In general terms: A flow cytometer gives signals particle by particle.

The target in assay [12] is T3, C1A-C1A-EYFP (PKCγ) (UniProt P63319).
T3 construct: apparent Kd; other: verapamil 100 μM, 90 min, 37° C., DMEM high glucose, 4% FBS; half time (t1/2) of cellular fluorescence; other: 33 at 5 μM, verapamil 100 μM, room temperature; fused on or other part: EYFP at the C-terminus; the C1A module is present twice in one chain
Description: Cellular binding by flow cytometry, HEK293 cells expressing C1A-C1A-EYFP (PKCγ). From the text:
The dissociation constant can be defined as the ratio of koff divided by kon. This value is also the concentration where the ligand occupies 50% of the receptor.^94 Kd is only meaningful when equilibrium is reached, where the ligand-receptor complex is formed at the same rate as it dissociates into free ligand and receptor (FIG. 15). This binding equilibrium is established when essentially no further change in the amount of bound complex is observed over time. To evaluate the time needed for equilibration, we treated HEK293 cells that overexpress C1A-C1A-EYFP (PKCγ) with 33 (0 and 5 μM) in the presence or absence of verapamil (100 μM) and cellular fluorescence was measured by flow cytometry as a function of time (FIG. 18A). […] This optimization was used to establish a 90 min equilibration period for further assay optimization.
The presence of fetal bovine serum (FBS) in the culture media also influenced the binding by sequestering the free ligand. The assay conditions were finalized using HEK293 cells incubated with the probe in the presence of verapamil for 90 min at 37° C. in DMEM media (high glucose, 4% FBS).

Broadly, the IC50 is the point on the concentration scale where inhibition reaches its midpoint. One may read the Ki as the equilibrium dissociation constant of an inhibitor or competing ligand from its target.

Sequence of mouse PKCη-mVenus (P23298 whole entry, the tested form may be a part): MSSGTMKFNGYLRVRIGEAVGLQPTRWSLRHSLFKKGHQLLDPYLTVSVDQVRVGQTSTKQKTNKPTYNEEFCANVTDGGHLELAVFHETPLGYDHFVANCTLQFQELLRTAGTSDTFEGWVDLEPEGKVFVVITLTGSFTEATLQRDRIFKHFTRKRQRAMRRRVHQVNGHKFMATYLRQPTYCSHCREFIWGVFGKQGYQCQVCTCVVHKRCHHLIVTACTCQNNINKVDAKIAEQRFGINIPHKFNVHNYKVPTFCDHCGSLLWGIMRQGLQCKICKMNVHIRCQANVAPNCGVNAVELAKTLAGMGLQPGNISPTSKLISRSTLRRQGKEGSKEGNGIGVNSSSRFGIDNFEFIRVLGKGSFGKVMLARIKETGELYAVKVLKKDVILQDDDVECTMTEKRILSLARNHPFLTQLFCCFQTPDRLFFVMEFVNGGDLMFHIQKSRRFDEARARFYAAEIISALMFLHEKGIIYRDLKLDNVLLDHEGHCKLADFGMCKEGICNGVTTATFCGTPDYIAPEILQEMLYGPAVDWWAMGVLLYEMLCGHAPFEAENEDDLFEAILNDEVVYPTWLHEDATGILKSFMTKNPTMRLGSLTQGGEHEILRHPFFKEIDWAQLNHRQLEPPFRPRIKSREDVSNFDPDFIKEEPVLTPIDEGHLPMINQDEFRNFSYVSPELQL
T1 sequence (P68404 whole entry, the tested form may be a part): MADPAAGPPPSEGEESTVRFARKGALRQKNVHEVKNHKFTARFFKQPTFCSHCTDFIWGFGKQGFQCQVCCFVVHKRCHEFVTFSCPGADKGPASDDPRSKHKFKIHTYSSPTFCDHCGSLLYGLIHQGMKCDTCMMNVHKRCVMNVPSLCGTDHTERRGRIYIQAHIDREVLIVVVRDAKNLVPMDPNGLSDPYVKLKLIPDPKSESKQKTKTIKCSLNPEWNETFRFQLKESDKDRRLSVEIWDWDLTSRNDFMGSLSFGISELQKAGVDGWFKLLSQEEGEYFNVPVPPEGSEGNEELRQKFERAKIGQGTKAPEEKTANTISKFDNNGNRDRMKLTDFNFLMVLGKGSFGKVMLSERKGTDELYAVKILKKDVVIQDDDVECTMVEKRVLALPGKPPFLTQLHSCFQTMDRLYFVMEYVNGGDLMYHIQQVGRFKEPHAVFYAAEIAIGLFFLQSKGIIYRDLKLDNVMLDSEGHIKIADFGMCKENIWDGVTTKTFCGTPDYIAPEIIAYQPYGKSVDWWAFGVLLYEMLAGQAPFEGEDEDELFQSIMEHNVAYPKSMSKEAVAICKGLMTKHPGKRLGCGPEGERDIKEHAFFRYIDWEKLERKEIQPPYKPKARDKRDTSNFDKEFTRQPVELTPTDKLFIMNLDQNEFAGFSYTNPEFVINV
Sequence of mouse PKCθ-mVenus (Q02111 whole entry, the tested form may be a part): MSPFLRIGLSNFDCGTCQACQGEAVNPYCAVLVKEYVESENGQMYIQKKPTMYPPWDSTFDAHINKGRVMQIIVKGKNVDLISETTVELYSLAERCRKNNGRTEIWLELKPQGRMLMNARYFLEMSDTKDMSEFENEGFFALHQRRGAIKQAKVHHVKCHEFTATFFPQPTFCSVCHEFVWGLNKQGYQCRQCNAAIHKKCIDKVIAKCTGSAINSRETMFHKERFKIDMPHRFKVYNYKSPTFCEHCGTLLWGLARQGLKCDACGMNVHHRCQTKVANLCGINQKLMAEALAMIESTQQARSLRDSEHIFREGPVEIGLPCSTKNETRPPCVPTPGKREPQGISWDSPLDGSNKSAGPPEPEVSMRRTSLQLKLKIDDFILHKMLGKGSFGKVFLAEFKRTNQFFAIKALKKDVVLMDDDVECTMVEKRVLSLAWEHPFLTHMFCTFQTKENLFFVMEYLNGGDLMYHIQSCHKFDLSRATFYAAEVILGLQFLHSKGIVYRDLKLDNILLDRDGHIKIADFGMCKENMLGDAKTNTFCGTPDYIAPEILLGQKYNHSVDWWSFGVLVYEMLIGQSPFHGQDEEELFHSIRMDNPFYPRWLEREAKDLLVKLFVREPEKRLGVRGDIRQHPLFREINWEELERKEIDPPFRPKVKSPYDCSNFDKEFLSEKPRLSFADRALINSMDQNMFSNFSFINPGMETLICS

In the case of `CCCCCCCCCCCCCC(=O)O[C@@H]1[C@@H](C)[C@@]2(O)[C@@H](C=C(CO)C[C@]3(O)C(=O)C(C)=C[C@@H]23)[C@@H]2C(C)(C)[C@]12OC(C)=O` [PMA, 12-O-tetradecanoylphorbol-13-acetate], in assay [1] (PMA vs probe 47), the “Efficacy, PKCβI” value turned out to be 103%. Besides, in [1] (PMA vs probe 47), the “IC50/Ki, PKCβI” value is 2.5. Moreover, the IC50 in assay [1] (probe 47 1.4 μM, verapamil 25 μM, read-out: IC50 (PMA), PKCβI) was 0.015 µM; in assay [2] (probe 47 1.4 μM, verapamil 25 μM, read-out: IC50 (PMA), PKCα) it was 0.014 µM; in assay [3] (probe 47 2.9 μM, verapamil 25 μM, read-out: IC50 (PMA), PKCγ), 0.012 µM; in assay [4] (probe 47 5.8 μM, verapamil 25 μM, read-out: IC50 (PMA), PKCδ), 0.039 µM; in assay [5] (probe 47 2.9 μM, verapamil 25 μM, read-out: IC50 (PMA), PKCε), 0.049 µM; in assay [6] (probe 47 4.3 μM, verapamil 25 μM, read-out: IC50 (PMA), PKCη), 0.032 µM. The IC50 in [7] (probe 47 4.3 μM, verapamil 25 μM, read-out: IC50 (PMA), PKCθ) was determined as 0.013 µM. Also, the Ki in [1] (probe 47 1.4 μM, verapamil 25 μM, read-out: Ki (PMA), PKCβI) turned out to be 0.0057 µM; in assay [2] (probe 47 1.4 μM, verapamil 25 μM, read-out: Ki (PMA), PKCα) it was 0.0075 µM; in assay [3] (probe 47 2.9 μM, verapamil 25 μM, read-out: Ki (PMA), PKCγ) it was 0.0049 µM; in assay [4] (probe 47 5.8 μM, verapamil 25 μM, read-out: Ki (PMA), PKCδ), 0.023 µM; in [5] (probe 47 2.9 μM, verapamil 25 μM, read-out: Ki (PMA), PKCε), 0.036 µM; in [6] (probe 47 4.3 μM, verapamil 25 μM, read-out: Ki (PMA), PKCη), 0.021 µM. For the same compound, the inhibitory constant (Ki) in [7] (probe 47 4.3 μM, verapamil 25 μM, read-out: Ki (PMA), PKCθ) worked out at 0.01 µM. The “Efficacy, PKCα” value in assay [2] (PMA vs probe 47) is listed as 95%. In assay [2] (PMA vs probe 47), the “IC50/Ki, PKCα” value worked out at 1.9. In addition, the “Efficacy, PKCγ” value in [3] (PMA vs probe 47) stood at 97%. In assay [3] (PMA vs probe 47), the “IC50/Ki, PKCγ” value came out at 2.4. The “Efficacy, PKCδ” value in assay [4] (PMA vs probe 47) was 81%. Moreover, the “IC50/Ki, PKCδ” value in [4] (PMA vs probe 47) was 1.7. The “Efficacy, PKCε” value in assay [5] (PMA vs probe 47) is reported as 81%. Further, the “IC50/Ki, PKCε” value in [5] (PMA vs probe 47) is on record as 1.4. Besides, in [6] (PMA vs probe 47), the “Efficacy, PKCη” value stood at 80%. In assay [6] (PMA vs probe 47), the “IC50/Ki, PKCη” value was found to be 1.5. For the same compound, the “Efficacy, PKCθ” value in assay [7] (PMA vs probe 47) was determined as 80%. In addition, the “IC50/Ki, PKCθ” value in assay [7] (PMA vs probe 47) was determined as 1.4.

As to `COc1cc2cc(c1Cl)N(C)C(=O)C[C@H](OC(=O)[C@H](C)N(C)C(C)=O)[C@]1(C)O[C@H]1[C@H](C)[C@@H]1C[C@@](O)(NC(=O)O1)[C@H](OC)/C=C/C=C(\C)C2` [maytansine], in [8], the “cooperativity factor α” value was 0.21 and the Kb was found to be 0.003 µM.

On to `CO[C@H]1C(=O)[C@]2(C)[C@@H](OC)C[C@H]3OC[C@@]3(OC(C)=O)[C@H]2[C@H](OC(=O)c2ccccc2)[C@]2(O)C[C@H](OC(=O)[C@H](O)[C@@H](NC(=O)OC(C)(C)C)c3ccccc3)C(C)=C1C2(C)C` [cabazitaxel], for which the values for the Ki in [9] and in [10] were 0.0074 ± 0.0009 µM and 0.006 µM, respectively.

Consider `CC1=C[C@H]2[C@@]3(O)[C@H](C)[C@@H](O)[C@]4(OC(=O)N(C)CCCCCCCCN(C)C(=O)c5cc6cc(F)c(O)c(F)c6oc5=O)[C@H]([C@@H]3C=C(CO)C[C@]2(O)C1=O)C4(C)C` [probe 32, (1aR,1bS,4aR,7aS,7bS,8R,9R,9aS)-4a,7b,9-trihydroxy-3-(hydroxymethyl)-1,1,6,8-tetramethyl-5-oxo-1,1a,1b,4,4a,5,7a,7b,8,9-decahydro-9aH-cyclopropa[3,4]benzo[1,2-e]azulen-9a-yl (8-(6,8-difluoro-7-hydroxy-N-methyl-2-oxo-2H-chromene-3-carboxamido)octyl)(methyl)carbamate], for which, in assay [11], the Kd was determined as 63 µM.

For `CC[C@]1(O)C[C@@H]2CN(CCc3c([nH]c4ccccc34)[C@@](C(=O)OC)(c3cc4c(cc3OC)N(C)[C@H]3[C@@](O)(C(=O)OC)[C@H](OC(C)=O)[C@]5(CC)C=CCN6CC[C@]43[C@@H]65)C2)C1` [vinblastine], the Kd in assay [9] (read-out: biochemical Kd for microtubules) is 0.19 to 1 µM. Further, in assay [8], the “cooperativity factor α” value was determined as 0.18 and the Kb stood at 0.007 µM.

`C#CCN(CCCCCCCCCCCCNC(=O)c1cc2cc(F)c(O)c(F)c2oc1=O)C(=O)O[C@@]12[C@H](O)[C@@H](C)[C@@]3(O)[C@@H](C=C(CO)C[C@]4(O)C(=O)C(C)=C[C@@H]34)[C@@H]1C2(C)C` [probe 48, (1aR,1bS,4aR,7aS,7bS,8R,9R,9aS)-4a,7b,9-trihydroxy-3-(hydroxymethyl)-1,1,6,8-tetramethyl-5-oxo-1,1a,1b,4,4a,5,7a,7b,8,9-decahydro-9aH-cyclopropa[3,4]benzo[1,2-e]azulen-9a-yl (12-(6,8-difluoro-7-hydroxy-2-oxo-2H-chromene-3-carboxamido)dodecyl)(prop-2-yn-1-yl)carbamate]: the “affinity relative to 33” value in [12] is ~2 fold. For the same compound, the Kd in [12] (verapamil 100 μM, 90 min, 37° C., DMEM high glucose, 4% FBS, read-out: apparent Kd) worked out at 2 µM.

`CC(=O)O[C@@]12CO[C@@H]1C[C@H](O)[C@@]1(C)C(=O)[C@H](O)C3=C(C)[C@@H](OC(=O)[C@H](O)[C@@H](NC(=O)OC(C)(C)C)c4ccccc4)C[C@@](O)([C@@H](OC(=O)c4ccccc4)[C@H]21)C3(C)C` [docetaxel]: the Ki in assay [9] was 0.017 ± 0.006 µM; in assay [10] it was 0.016 µM.
